tested on: NIH/Swiss female mice; assay: in vivo basal glucose lowering assay; conditions: Table 1, result in words (inactive / similar to GLP-1), subcutaneous injection
Protocol: Some compounds shown in Table 1 below were analyzed in an in vivo basal glucose lowering assay using the following procedure: A subcutaneous injection of either 200 μl phosphate-buffered saline (PBS) vehicle or test article was given immediately following baseline glucose (t=0) to NIH/Swiss female mice. Tail blood glucose samples were measured at t=2 and 4 hours post dose using a OneTouch® Ultra® (LifeScan, Inc., a Johnson & Johnson Company, Milpitas, Calif.). Body weight was measured daily. Significant test sample effects were identified by ANOVA (p<0.05), followed by Dunnett's post test using GraphPad Prism version 4.00 for Windows (GraphPad Software, San Diego Calif.).

| SMILES | In Vivo Glucose-Lowering Assay |
| --- | --- |
| CC[C@H](C)[C@H](NC(=O)[C@H](Cc1ccccc1)NC(=O)[C@H](CC(C)C)NC(=O)[C@H](CCCNC(=N)N)NC(=O)[C@@H](NC(=O)[C@H](C)NC(=O)[C@H](CCC(=O)O)NC(=O)[C@H](CCC(=O)O)NC(=O)[C@H](CCC(=O)O)NC(=O)[C@H](CC(C)C)NC(=O)[C@H](CCC(N)=O)NC(=O)[C@H](CCCCN)NC(=O)[C@H](CO)NC(=O)[C@H](CC(C)C)NC(=O)[C@H](CC(=O)O)NC(=O)[C@H](CO)NC(=O)[C@@H](NC(=O)[C@H](Cc1ccccc1)NC(=O)[C@@H](NC(=O)[C@H]1CCCN(C(=O)[C@@H]2CCCN(C(=O)[C@H](C)NC(=O)[C@@H](N)Cc3c[nH]cn3)C2)C1)[C@@H](C)O)[C@@H](C)O)C(C)C)C(=O)N[C@@H](CCC(=O)O)C(=O)N[C@@H](Cc1c[nH]c2ccccc12)C(=O)N[C@@H](CC(C)C)C(=O)N[C@@H](CCCCN)C(=O)N[C@@H](CCC(N)=O)C(=O)NCC(=O)NCC(=O)N1CCC[C@H]1C(=O)N[C@@H](CO)C(=O)N[C@@H](CCCCN)C(=O)N[C@@H](CCC(=O)O)C(=O)N[C@H](C(=O)N[C@H](C(=O)N[C@@H](CO)C(N)=O)[C@@H](C)CC)[C@@H](C)CC [15A] | inactive |
| CC[C@H](C)[C@H](NC(=O)[C@H](Cc1ccccc1)NC(=O)[C@H](CC(C)C)NC(=O)[C@H](CCCNC(=N)N)NC(=O)[C@@H](NC(=O)[C@H](C)NC(=O)[C@H](CCC(=O)O)NC(=O)[C@H](CCC(=O)O)NC(=O)[C@H](CCC(=O)O)NC(=O)[C@H](CC(C)C)NC(=O)[C@H](CCC(N)=O)NC(=O)[C@H](CCCCN)NC(=O)[C@H](CO)NC(=O)[C@H](CC(C)C)NC(=O)[C@H](CC(=O)O)NC(=O)[C@H](CO)NC(=O)[C@@H](NC(=O)[C@H](Cc1ccccc1)NC(=O)[C@@H](NC(=O)CNC(=O)[C@@H]1CCCN(C(=O)[C@H]2CCCN(C(=O)[C@@H](N)Cc3c[nH]cn3)C2)C1)[C@@H](C)O)[C@@H](C)O)C(C)C)C(=O)N[C@@H](CCC(=O)O)C(=O)N[C@@H](Cc1c[nH]c2ccccc12)C(=O)N[C@@H](CC(C)C)C(=O)N[C@@H](CCCCN)C(=O)N[C@@H](CCC(N)=O)C(=O)NCC(=O)NCC(=O)N1CCC[C@H]1C(=O)N[C@@H](CO)C(=O)N[C@@H](CCCCN)C(=O)N[C@@H](CCC(=O)O)C(=O)N[C@H](C(=O)N[C@H](C(=O)N[C@@H](CO)C(N)=O)[C@@H](C)CC)[C@@H](C)CC [15D] | inactive |
| CC[C@H](C)[C@H](NC(=O)[C@H](Cc1ccccc1)NC(=O)[C@H](CC(C)C)NC(=O)[C@H](CCCNC(=N)N)NC(=O)[C@@H](NC(=O)[C@H](C)NC(=O)[C@H](CCC(=O)O)NC(=O)[C@H](CCC(=O)O)NC(=O)[C@H](CCC(=O)O)NC(=O)[C@H](CC(C)C)NC(=O)[C@H](CCC(N)=O)NC(=O)[C@H](CCCCN)NC(=O)[C@H](CO)NC(=O)[C@H](CC(C)C)NC(=O)[C@H](CC(=O)O)NC(=O)[C@H](CO)NC(=O)[C@@H](NC(=O)[C@H](Cc1ccccc1)NC(=O)[C@@H](NC(=O)CNC(=O)[C@H]1CCCN(C(=O)[C@@H]2CCCN(C(=O)[C@@H](N)Cc3c[nH]cn3)C2)C1)[C@@H](C)O)[C@@H](C)O)C(C)C)C(=O)N[C@@H](CCC(=O)O)C(=O)N[C@@H](Cc1c[nH]c2ccccc12)C(=O)N[C@@H](CC(C)C)C(=O)N[C@@H](CCCCN)C(=O)N[C@@H](CCC(N)=O)C(=O)NCC(=O)NCC(=O)N1CCC[C@H]1C(=O)N[C@@H](CO)C(=O)N[C@@H](CCCCN)C(=O)N[C@@H](CCC(=O)O)C(=O)N[C@H](C(=O)N[C@H](C(=O)N[C@@H](CO)C(N)=O)[C@@H](C)CC)[C@@H](C)CC [15C] | inactive |

same assay, conditions: Table 1, time in hours, subcutaneous injection, tail blood glucose at t=2 and 4 hours post dose

| SMILES | In Vivo Glucose-Lowering Assay |
| --- | --- |
| CC[C@H](C)[C@H](NC(=O)[C@H](Cc1ccccc1)NC(=O)[C@H](CC(C)C)NC(=O)[C@H](CCCNC(=N)N)NC(=O)[C@@H](NC(=O)[C@H](C)NC(=O)[C@H](CCC(=O)O)NC(=O)[C@H](CCC(=O)O)NC(=O)[C@H](CCC(=O)O)NC(=O)[C@H](CC(C)C)NC(=O)[C@H](CCC(N)=O)NC(=O)[C@H](CCCCN)NC(=O)[C@H](CO)NC(=O)[C@H](CC(C)C)NC(=O)[C@H](CC(=O)O)NC(=O)[C@H](CO)NC(=O)[C@@H](NC(=O)[C@H](Cc1ccccc1)NC(=O)[C@@H](NC(=O)CNC(=O)[C@@H]1CCCN1C(=O)CNC(=O)[C@@H](N)Cc1c[nH]cn1)[C@@H](C)O)[C@@H](C)O)C(C)C)C(=O)N[C@@H](CCC(=O)O)C(=O)N[C@@H](Cc1c[nH]c2ccccc12)C(=O)N[C@@H](CC(C)C)C(=O)N[C@@H](CCCCN)C(=O)N[C@@H](CCC(N)=O)C(=O)NCC(=O)NCC(=O)N1CCC[C@H]1C(=O)N[C@@H](CO)C(=O)N[C@@H](CCCCN)C(=O)N[C@@H](CCC(=O)O)C(=O)N[C@H](C(=O)N[C@H](C(=O)N[C@@H](CO)C(N)=O)[C@@H](C)CC)[C@@H](C)CC [2B] | more than 4 hours |
| CC[C@H](C)[C@H](NC(=O)[C@H](Cc1ccccc1)NC(=O)[C@H](CC(C)C)NC(=O)[C@H](CCCNC(=N)N)NC(=O)[C@@H](NC(=O)[C@H](C)NC(=O)[C@H](CCC(=O)O)NC(=O)[C@H](CCC(=O)O)NC(=O)[C@H](CCC(=O)O)NC(=O)[C@H](CC(C)C)NC(=O)[C@H](CCC(N)=O)NC(=O)[C@H](CCCCN)NC(=O)[C@H](CO)NC(=O)[C@H](CC(C)C)NC(=O)[C@H](CC(=O)O)NC(=O)[C@H](CO)NC(=O)[C@@H](NC(=O)[C@H](Cc1ccccc1)NC(=O)[C@@H](NC(=O)CNC(=O)[C@@H]1CCCCN1C(=O)CNC(=O)[C@@H](N)Cc1c[nH]cn1)[C@@H](C)O)[C@@H](C)O)C(C)C)C(=O)N[C@@H](CCC(=O)O)C(=O)N[C@@H](Cc1c[nH]c2ccccc12)C(=O)N[C@@H](CC(C)C)C(=O)N[C@@H](CCCCN)C(=O)N[C@@H](CCC(N)=O)C(=O)NCC(=O)NCC(=O)N1CCC[C@H]1C(=O)N[C@@H](CO)C(=O)N[C@@H](CCCCN)C(=O)N[C@@H](CCC(=O)O)C(=O)N[C@H](C(=O)N[C@H](C(=O)N[C@@H](CO)C(N)=O)[C@@H](C)CC)[C@@H](C)CC [2F] | more than 4 hours |
| CC[C@H](C)[C@H](NC(=O)[C@H](Cc1ccccc1)NC(=O)[C@H](CC(C)C)NC(=O)[C@H](CCCNC(=N)N)NC(=O)[C@@H](NC(=O)[C@H](C)NC(=O)[C@H](CCC(=O)O)NC(=O)[C@H](CCC(=O)O)NC(=O)[C@H](CCC(=O)O)NC(=O)[C@H](CC(C)C)NC(=O)[C@H](CCC(N)=O)NC(=O)[C@H](CCCCN)NC(=O)[C@H](CO)NC(=O)[C@H](CC(C)C)NC(=O)[C@H](CC(=O)O)NC(=O)[C@H](CO)NC(=O)[C@@H](NC(=O)[C@H](Cc1ccccc1)NC(=O)[C@@H](NC(=O)CNC(=O)[C@@H]1C[C@@H](O)CN1C(=O)CNC(=O)[C@@H](N)Cc1c[nH]cn1)[C@@H](C)O)[C@@H](C)O)C(C)C)C(=O)N[C@@H](CCC(=O)O)C(=O)N[C@@H](Cc1c[nH]c2ccccc12)C(=O)N[C@@H](CC(C)C)C(=O)N[C@@H](CCCCN)C(=O)N[C@@H](CCC(N)=O)C(=O)NCC(=O)NCC(=O)N1CCC[C@H]1C(=O)N[C@@H](CO)C(=O)N[C@@H](CCCCN)C(=O)N[C@@H](CCC(=O)O)C(=O)N[C@H](C(=O)N[C@H](C(=O)N[C@@H](CO)C(N)=O)[C@@H](C)CC)[C@@H](C)CC [2I] | more than 4 hours |

From US8642544B2, “N-terminus conformationally constrained GLP-1 receptor agonist compounds” (Amylin Pharmaceuticals, LLC, priority 2009, dated 2014)
